Measured values published in patent US12624034B2, “Non-covalent modifiers of AKT1 and uses thereof” (Terremoto Biosciences, Inc., priority 2023, dated 2026).
Read-outs that look alike come from different tables or passages of the source.

Legend:
[1] = tested on: LAPC4 prostate cancer cells, which express the AKT1 E17K allele; test: Antiproliferative effects in LAPC4 cells (CellTiter Glo, 72 h); assay type: cell-based; conditions: Homo sapiens, LAPC4, 72 h, read-out: LAPC4 proliferation IC50
Description: Antiproliferative Effects in LAPC4 Cells.
LAPC4 prostate cancer cells (Klein, K. A. et al. Nat Med 1997, 3, 402-408), which express the AKT1 E17K allele, were grown in IMDM media (Hyclone) supplemented with 12% FBS+1% P/S. To assess compound effects on growth, 1,000 cells/well were seeded in 384 well assay plates, incubated with compound dilutions dissolved in DMSO. After 72 h, intracellular ATP content was assessed with CellTiter Glo reagent (Promega) according to the manufacturer's instructions. IC50 values were calculated by fitting luminescence values to a log(inhibitor) vs. response Hill equation.

AKT1 E17K = biological target: T1, AKT1 E17K (Homo sapiens, UniProt P31749, E17K); test: Live cell AKT1 E17K target engagement by NanoBRET competitive probe displacement in HEK293 cells; assay type: binding; conditions: 2 h at 37° C.
T1 construct: expressed in transfected cells; host or cells: HEK293
T1 sequence (P31749 whole entry E17K): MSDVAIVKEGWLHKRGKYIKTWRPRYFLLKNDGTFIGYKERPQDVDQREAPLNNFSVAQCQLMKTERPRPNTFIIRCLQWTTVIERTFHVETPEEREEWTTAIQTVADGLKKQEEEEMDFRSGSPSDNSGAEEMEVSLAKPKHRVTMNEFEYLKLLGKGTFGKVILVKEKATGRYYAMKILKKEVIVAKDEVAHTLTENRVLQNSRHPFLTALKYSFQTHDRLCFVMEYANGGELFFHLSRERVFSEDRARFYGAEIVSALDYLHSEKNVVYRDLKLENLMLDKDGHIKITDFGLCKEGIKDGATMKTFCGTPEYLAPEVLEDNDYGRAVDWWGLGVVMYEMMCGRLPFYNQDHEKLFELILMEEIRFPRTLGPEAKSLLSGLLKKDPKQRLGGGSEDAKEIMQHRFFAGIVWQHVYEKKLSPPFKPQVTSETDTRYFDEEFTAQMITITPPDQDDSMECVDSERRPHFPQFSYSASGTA
Outline: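 Live-cell NanoBRET: HEK293, kinase-NanoLuc fusion, ATP-competitive fluorescent tracer ~EC50, 2 h 37° C, extracellular NanoLuc inhibitor present; IC50 from log(inhibitor)–response Hill fit.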

AKT1 WT = biological target: T2, AKT1 WT (Homo sapiens, UniProt P31749); test: Live cell AKT1 WT target engagement by NanoBRET competitive probe displacement in HEK293 cells; assay type: binding; conditions: 2 h at 37° C., read-out: AKT1 WT IC50
T2 construct: expressed in transfected cells; host or cells: HEK293
T2 sequence (P31749 whole entry): as the sequence (P31749 whole entry E17K) above, with K17E counted along it

AKT2 = biological target: T3, AKT2 (Homo sapiens, UniProt P31751); test: Live cell AKT2 target engagement by NanoBRET competitive probe displacement in HEK293 cells; assay type: binding; conditions: 2 h at 37° C., read-out: AKT2 IC50
T3 construct: expressed in transfected cells; host or cells: HEK293
T3 sequence (P31751 whole entry): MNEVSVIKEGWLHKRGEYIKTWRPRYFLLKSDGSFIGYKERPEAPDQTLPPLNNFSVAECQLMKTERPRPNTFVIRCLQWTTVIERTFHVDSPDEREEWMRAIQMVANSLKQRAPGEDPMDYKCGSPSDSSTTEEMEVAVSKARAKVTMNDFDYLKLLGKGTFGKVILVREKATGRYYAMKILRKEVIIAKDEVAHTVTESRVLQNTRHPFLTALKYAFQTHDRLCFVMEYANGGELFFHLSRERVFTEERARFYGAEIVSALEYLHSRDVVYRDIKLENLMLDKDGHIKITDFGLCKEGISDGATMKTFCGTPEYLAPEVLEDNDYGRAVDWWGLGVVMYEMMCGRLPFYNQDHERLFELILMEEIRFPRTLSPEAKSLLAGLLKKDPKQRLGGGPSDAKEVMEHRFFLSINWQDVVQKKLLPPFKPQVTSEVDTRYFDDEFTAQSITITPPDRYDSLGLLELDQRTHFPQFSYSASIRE

[2] = NanoBRET live cell target engagement, HEK293 cells
[3] = NanoBRET competitive probe displacement, live HEK293 cells

IC50 [1] [µM]	IC50 (AKT1 E17K; [2]) [nM]	IC50 (AKT1 WT; [2]) [nM]	IC50 (AKT2; [2]) [nM]	IC50 (AKT1 E17K; [3]) [nM]	IC50 (AKT1 WT; [3]) [nM]	IC50 (AKT2; [3]) [nM]	Structure (SMILES)
6.96	138	36.1	1270	–	–	–	Nc1ncccc1-c1nc2ccc(-n3cccn3)nc2n1-c1ccc2c(c1)CC[C@@H]2n1cc(C2CC2(F)F)nn1 (stereo partly shown) [Compound 362]
4.81	897	40.5	589	–	–	–	Nc1ncccc1-c1nc2ccc(-n3nccn3)nc2n1-c1ccc2c(c1)CC[C@@H]2NC(=O)c1ccnc2c1CCO2 [Compound 286]
1.51	–	–	–	59	3.17	360	COc1cc(C(=O)N[C@H]2CCc3cc(-n4c(-c5cccnc5N)nc5ccc(-n6nccn6)nc54)ccc32)cnn1 [Compound 426]
4.41	–	–	–	> 1000	14.3	665	COCCOc1ccn(-c2ccc3nc(-c4cccnc4N)n(-c4ccc5c(c4)CC[C@@H]5NC4CCN(C(=O)C5CC5)CC4)c3n2)n1 [Compound 504]
0.555	24.1	6.27	64	–	–	–	Nc1ncccc1-c1nc2ccc(-n3cccn3)nc2n1-c1ccc2c(c1)CC[C@@H]2NC(=O)c1cccnc1 [Compound 34, N-[(1S)-5-[2-(2-aminopyridin-3-yl)-5-(pyrazol-1-yl)imidazo[4,5-b]pyridin-3-yl]-2,3-dihydro-1H-inden-1-yl]pyridine-3-carboxamide]
> 10	–	–	–	> 1000	125	3850	Nc1ncccc1-c1nc2ccc(-n3cccn3)nc2n1-c1ccc2c(c1)CC[C@@H]2NC1CCN(S(=O)(=O)C2CC2)CC1 [Compound 393]
4.38	570	51	1070	–	–	–	Nc1ncccc1-c1nc2ccc(-n3cccn3)nc2n1-c1ccc2c(c1)CC[C@@H]2NC1CCN(C(=O)c2ccccc2)CC1 [Compound 275]
0.628	127	6.84	207	–	–	–	COc1cc(C(=O)N[C@H]2CCc3cc(-n4c(-c5cccnc5N)nc5ccc(-n6nccn6)nc54)ccc32)ccn1 [Compound 321]
4.15	92.3	13.1	546	–	–	–	Cc1ncc(F)cc1C(=O)N[C@H]1CCc2cc(-n3c(-c4cccnc4N)nc4ccc(-n5nccn5)nc43)ccc21 [Compound 382]
1.77	172	19.7	295	–	–	–	Cc1cc(C(=O)N[C@H]2CCc3cc(-n4c(-c5cccnc5N)nc5ccc(-n6cccn6)nc54)ccc32)n[nH]1 [Compound 4, (S)—N-(5-(2-(2-aminopyridin-3-yl)-5-(1H-pyrazol-1-yl)-3H-imidazo[4,5-b]pyridin-3-yl)-2,3-dihydro-1H-inden-1-yl)-5-methyl-11H-pyrazole-3-carboxamide]
1.77	36	9.21	179	–	–	–	Nc1ncccc1-c1nc2ccc(-n3cccn3)nc2n1-c1ccc2c(c1)CC[C@@H]2NC(=O)c1cncnc1 [Compound 40, N-[(1S)-5-[2-(2-aminopyridin-3-yl)-5-(pyrazol-1-yl)imidazo[4,5-b]pyridin-3-yl]-2,3-dihydro-1H-inden-1-yl]pyrimidine-5-carboxamide]
> 10	> 1000	231	> 10000	–	–	–	Nc1ncccc1-c1nc2ccc(-n3cccn3)nc2n1-c1ccc2c(c1)CC[C@@H]2NC1CCN(C(=O)c2cccnc2)CC1 [Compound 359]
0.733	44.4	10.5	55.5	–	–	–	Nc1ncccc1-c1nc2ccc(-n3cccn3)nc2n1-c1ccc2c(c1)CC[C@@H]2NC(=O)c1ccc(C(F)F)nc1 [Compound 18, (S)—N-(5-(2-(2-aminopyridin-3-yl)-5-(1H-pyrazol-1-yl)-3H-imidazo[4,5-b]pyridin-3-yl)-2,3-dihydro-1H-inden-1-yl)-6-(difluoromethyl)nicotinamide]
1.75	143	14.2	98.6	–	–	–	Nc1ncccc1-c1nc2ccc(-n3cccn3)nc2n1-c1ccc2c(c1)CC[C@@H]2NC(=O)c1ccncc1 [Compound 35, N-[(1S)-5-[2-(2-aminopyridin-3-yl)-5-(pyrazol-1-yl)imidazo[4,5-b]pyridin-3-yl]-2,3-dihydro-1H-inden-1-yl]pyridine-4-carboxamide]
> 7.5	> 856	34.3	1790	–	–	–	Nc1ncccc1-c1nc2ccc(-n3cccn3)nc2n1-c1ccc2c(c1)CC(F)[C@@H]2NC1CCN(C(=O)C2CC2)CC1 (single isomer, unassigned) [Compound 385, 3-{3-[(1R,2*)-1-[(1-cyclopropanecarbonylpiperidin-4-yl)amino]-2-fluoro-2,3-dihydro-1H-inden-5-yl]-5-(pyrazol-1-yl)imidazo[4,5-b]pyridin-2-yl}pyridin-2-amine]
1.05	20.9	4.46	30.2	–	–	–	COc1cncc(C(=O)N[C@H]2CCc3cc(-n4c(-c5cccnc5N)nc5ccc(-n6cccn6)nc54)ccc32)c1 [Compound 21, (S)—N-(5-(2-(2-aminopyridin-3-yl)-5-(1H-pyrazol-1-yl)-3H-imidazo[4,5-b]pyridin-3-yl)-2,3-dihydro-1H-inden-1-yl)-5-methoxynicotinamide]
3.62	261	48.8	3430	–	–	–	Nc1ncccc1-c1nc2ccc(-n3nccn3)nc2n1-c1ccc2c(c1)CC[C@@H]2NC(=O)c1cncnc1 [Compound 59, (S)—N-(5-(2-(2-aminopyridin-3-yl)-5-(2H-1,2,3-triazol-2-yl)-3H-imidazo[4,5-b]pyridin-3-yl)-2,3-dihydro-1H-inden-1-yl)pyrimidine-5-carboxamide]
0.921	72.6	4.75	49.7	–	–	–	Nc1ncccc1-c1nc2ccc(-n3cccn3)nc2n1-c1ccc2c(c1)CC[C@@H]2NC(=O)c1ccc(C(F)F)cc1 [Compound 61, (S)—N-(5-(2-(2-aminopyridin-3-yl)-5-(1H-pyrazol-1-yl)-3H-imidazo[4,5-b]pyridin-3-yl)-2,3-dihydro-1H-inden-1-yl)-4-(difluoromethyl)benzamide]
7.88	366	33.9	470	–	–	–	Cc1ccncc1C(=O)N[C@H]1CCc2cc(-n3c(-c4cccnc4N)nc4ccc(-n5cccn5)nc43)ccc21 [Compound 31, (S)—N-(5-(2-(2-aminopyridin-3-yl)-5-(1H-pyrazol-1-yl)-3H-imidazo[4,5-b]pyridin-3-yl)-2,3-dihydro-1H-inden-1-yl)-4-methylnicotinamide]
> 10	> 1000	215	4030	–	–	–	Nc1ncccc1-c1nc2ccc(-n3cccn3)nc2n1-c1ccc2c(c1)CC[C@@H]2NC(=O)C1COC1 [Compound 15, (S)—N-(5-(2-(2-aminopyridin-3-yl)-5-(1H-pyrazol-1-yl)-3H-imidazo[4,5-b]pyridin-3-yl)-2,3-dihydro-1H-inden-1-yl)oxetane-3-carboxamide]
> 10	> 1000	117	5590	–	–	–	N#CC1(C(=O)N2CCC(N[C@H]3CCc4cc(-n5c(-c6cccnc6N)nc6ccc(-n7cccn7)nc65)ccc43)CC2)CC1 [Compound 369]
> 10	> 1000	93	3290	–	–	–	CCC(=O)N1CCC(N[C@H]2CCc3cc(-n4c(-c5cccnc5N)nc5ccc(-n6cccn6)nc54)ccc32)CC1 [Compound 278]
8.03	167	43.5	2120	–	–	–	Nc1ncccc1-c1nc2ccc(-n3cccn3)nc2n1-c1ccc2c(c1)CC[C@@H]2NC(=O)c1cnccn1 [Compound 19, (S)—N-(5-(2-(2-aminopyridin-3-yl)-5-(1H-pyrazol-1-yl)-3H-imidazo[4,5-b]pyridin-3-yl)-2,3-dihydro-1H-inden-1-yl)pyrazine-2-carboxamide]
7.53	> 1000	208	4640	–	–	–	Nc1ncccc1-c1nc2ccc(-n3cccn3)nc2n1-c1ccc2c(c1)CC[C@@H]2NC1CCN(C(=O)c2ccccn2)CC1 [Compound 358]
6.36	232	55.1	846	–	–	–	Cn1cc(C(=O)N[C@H]2CCc3cc(-n4c(-c5cccnc5N)nc5ccc(-n6cccn6)nc54)ccc32)ccc1=O [Compound 24, (S)—N-(5-(2-(2-aminopyridin-3-yl)-5-(1H-pyrazol-1-yl)-3H-imidazo[4,5-b]pyridin-3-yl)-2,3-dihydro-1H-inden-1-yl)-1-methyl-6-oxo-1,6-dihydropyridine-3-carboxamide]
